In this experiment the test system is T1, LXRalpha and/or beta.
T1 construct: fused on or other part: His-tag (6xHis) on the LXR-LBD
In words: Co-activator recruitment assay (time-resolved fluorescence, LXR-LBD / SRC-1 peptide). It counts as biochemical, human. As to conditions: LXR isoform (alpha or beta) not stated; 22-R Hydroxycholesterol at 50 μM as 100% control; read-out: EC50 in coactivator recruitment assays. The source says: Co-Activator Recruitment Assay The Ligand Binding Domain (LBD) of human LXRalpha (amino acid 205-447) and LXRbeta (amino acid 216-461) was produced by recombinant techniques in E coli. A fragment of the human Steroid Receptor Co-Activator-1 (SRC-1) was produced as a synthetic peptide. An anti-6His-antibody coupled with Europium (Eu^3+) was used to recognize the His-tag on the LXR-LBD and Allophycocyanin (APC) coupled to streptavidin was used to recognize the biotinylated SRC-1. Agonist binding to LXRalpha or LXRbeta enhances the affinity of LXR towards SRC-1 and thereby brings Eu^3+ and APC in close proximity. Eu^3+ is excited at 337 nm and emitts light at 620 nm. This emission, when in close proximity, excites APC to emit light at 665 nm.
Dilution plates with compounds in DMSO were further diluted in buffer {20 mM [Tris(hydroxymethyl)aminomethane] pH 7.5, 0.125% CHAPS {3-[(3-Cholamidopropyl)dimethylammonio]-1-propanesulfonate}, 2 mM DTT (Dithiothreitol) and 0.05% BSA (Bovine Serum Albumin)} in order to reduce DMSO concentration, 0.5 μl to 13.5 μl. To this, 6 μl assay mix was added and the plates (384-well V-groove plates) were incubated at room temperature for 60 to 80 min. […] Time-resolved fluorescence readings were done in a Wallac Victor reader at 665 nm followed by reading at 615 nm. […]

SMILES strings stand for the structures.

Among the data in patent US20060189663A1, “Pyrrole-2,5-dithione derivatives as liver x receptor modulators” (AstraZeneca AB, priority 2003, published 2006) are EC50 values, retold here.

As for `Nc1ccc(CN2C(=S)C(Nc3ccc(OC(F)F)cc3)=C(c3ccccc3)C2=S)cn1` [Example 18, 1-[(6-Aminopyridin-3-yl)methyl]-3-{[4-(difluoromethoxy)phenyl]amino}-4-phenyl-1H-pyrrole-2,5-dithione], the EC50 is 140 nM. To `CCCCN1C(=O)C(c2ccccc2)=C(Nc2ccc(OC)cc2)C1=S` [Example 7, 1-Butyl-4-[(4-methoxyphenyl)amino]-3-phenyl-5-thioxo-1,5-dihydro-2H-pyrrol-2-one] belongs 90 nM.

As usually defined, the EC50 is the concentration giving half of the maximal effect.
